# Test results as given in PubChem BioAssay AID1918948 (Molecular Pharmacology Branch, DTP, NCI, 2023).
# Where “and” joins values, the source holds several entries; their conditions need not be identical. Equal entries are not always repeated.
# Tested on: K-562 leukemia growth, % test/control
# Experiment: Anticancer human tumor K-562 cell line growth inhibition;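 also: spheroids exposed to compounds for 7 days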;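 as to viability, T/C: 100% = DMSO vehicle wells and lower values mean fewer viable cells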
# Conditions: spheroids with HUVEC and MSC; for viability, T/C: stronger effect = lower value; for IC50: curve of compound
# From the text: Multicellular complex tumor spheroid response to LSD1 Inhibitor Iadademstat in combination with a variety of drugs and investigational agents in selected tumor cell lines
# The current study was undertaken to assess response to LSD1 inhibitors in combination with standard-of-care drugs and investigational agents in solid tumor complex spheroid models as well as in the K-562 leukemia. Complex spheroids include a stromal component modeled by human endothelial cells (HUVEC) and fibroblasts modeled by human mesenchymal stem cells (MSCs). The concentration ranges selected for each drug and investigational agent were based upon clinically achievable concentrations if the clinical Cmax of the agent was known.
# Compounds. The drugs and investigational agents used in this study are listed on Table 1. All of the agents used, including staurosporine (NSC755774) and gemcitabine (NSC613327), were obtained from the Developmental Therapeutics Program, NCI. FDA-approved anticancer drugs are available from the NCI at http://dtp.nci.nih.gov/branches/dscb/oncology_drugset_explanation.html. Drugs and investigational agents were >95% pure by proton nuclear magnetic resonance (NMR) and liquid chromatography/mass spectrometry (LC/MS). Stock solutions were prepared at 400x in DMSO, stored at -70 degrees C, and diluted in fresh medium prior to their use. The final concentration of DMSO in cell culture wells never exceeded 0.25% (v/v). The FDA-approved anticancer drug set is available from the Developmental Therapeutics Program at https://dtp.cancer.gov/organization/dscb/obtaining/available_plates.htm. All drugs and investigational agents were tested over a range starting from a high concentration at or near the clinical Cmax and decreasing in half-log increments. If the clinical Cmax for an agent had not been determined, the highest concentration tested was 10 microM.
# Cell Lines. The patient-derived cancer cell (PDC) lines: 292921-168-R-J2-PDC, K24384-001-R-PDC, and 521955-158-R2-J5-PDC pancreatic carcinomas, 556581-035-R-J1 ovarian carcinoma, 324938-238-R-J1-PDC, 855422-203-R-J1-PDC and 883617-216-R-J1-PDC urothelial bladder carcinomas, 743489-274-T-PDC renal cell carcinoma, 138582-R-J1 Merkel cell tumor, K60290-347-R-J1 and K57222-313-R-J1-PDC glioblastomas, 653999-131-R-J2-PDC, LG0703-F948-PDC, and 349418-098-R-PDC non-small cell lung carcinomas, 885512-296-R-J2-PDC, 171881-019-R-J1-PDC breast carcinomas and 186277-243-T-J2-PDC and 233499-124-R-J2-PDC colon carcinomas were obtained from the NCI Patient-Derived Models Repository (PDMR, https://pdmr.cancer.gov). The established cell lines NCI/ADR-RES (RRID:CVCL_14520 and OVCAR-5 (RRID:CVCL_1628) ovarian carcinomas, 786-O (RRID:CVCL_1051) and A498 (RRID:CVCL_A498) renal cell carcinoma, NCI-H211 (ATCC, cat. CRL-5824; RRID:CVCL_1529), NCI-H196 (ATCC, cat. CRL-5823, RRID:CVCL_1509), SW 1271 (ATCC, cat. CRL-2177, RRID:CVCL_1716) and NCI-H1876 (ATCC, cat. CRL-5902, RRID:CVCL_1503) small cell lung carcinomas, MDA-MB-231 (RRID:CVCL_0062) and MDA-MB-468 (RRID:CVCL_0419)breast carcinomas (10-12). Pooled donor human umbilical vein endothelial cells (HUVEC, Lonza, cat. CC-2519) and human mesenchymal stem cells (hMSC, Lonza, cat. PT-2501) were purchased from Lonza (Walkersville, MD).
# Cell Culture. All cells were maintained in an incubator at 37 degrees C and 5% CO2 with 95% humidity. The PDC lines were cultured according to standard operating procedures established by the NCI PDMR (https://pdmr.cancer.gov). Briefly all PDCs were thawed and cultured in Matrigel-coated flasks prepared with a working solution of 1X Ham's F-12 nutrient mix, without supplementation (Invitrogen, Waltham, MA, cat. 11765054), 100 U/mL penicillin-streptomycin (Invitrogen, cat. 15140122), and 2.5% Matrigel (Corning Inc., Corning, NY, cat. 354248) for the first three passages. […]
SMILES,"viability, T/C (compound 0.000316 µM)","viability, T/C (compound 0.00316 µM)","viability, T/C (compound 0.01 µM)","viability, T/C (compound 0.0316 µM)","viability, T/C (compound 0.1 µM)",IC50,"viability, T/C (compound 0.001 µM)","viability, T/C (compound 0.316 µM)","viability, T/C (compound 1 µM)","viability, T/C (compound 3.16 µM)","viability, T/C (compound 10 µM)","viability, T/C (compound 0.00949 µM)","viability, T/C (compound 0.03 µM)","viability, T/C (compound 0.0949 µM)","viability, T/C (compound 0.3 µM)","viability, T/C (compound 0.949 µM)","viability, T/C (compound 3 µM)","viability, T/C (compound 0.000949 µM)","viability, T/C (compound 0.003 µM)"
CC(C)CC(NC(=O)C(Cc1ccccc1)NC(=O)c1cnccn1)B(O)O (centres undefined),98.7% and 102%,18.8% and 1.3%,1.39% and 0.58%,1.89% and 0.51%,3.68% and 0.49%,0.002 µM and 0.000584 µM,,,,,,,,,,,,,
CC(C)CC(NC(=O)CNC(=O)c1cc(Cl)ccc1Cl)B1OC(=O)CC(CC(=O)O)(C(=O)O)O1 (centres undefined),103% and 97%,95.6% and 97.4%,74.2% and 68.6%,24.2% and 13.3%,6.61% and 2.45%,0.0174 µM and 0.0148 µM,97.5% and 95.5%,,,,,,,,,,,,
CC(C)c1c(-c2ccccc2)nc2c(C#N)c[nH]n2c1=O,,,,104% and 100%,98.4% and 97%,> 10 µM,,102% and 101%,99% and 102%,106% and 109%,107% and 108%,,,,,,,,
CC1(C)CCC(CN2CCN(c3ccc(C(=O)NS(=O)(=O)c4ccc(NCC5CCOCC5)c([N+](=O)[O-])c4)c(Oc4cnc5[nH]ccc5c4)c3)CC2)=C(c2ccc(Cl)cc2)C1,,,,102% and 101%,103% and 107%,7.52 µM and 4.73 µM,,100% and 108%,109% and 117%,117% and 75.7%,,,,,,,,,
CC1COCCN1c1cc(-c2ccnn2C)c2ccnc(-c3ccn[nH]3)c2n1 (centres undefined),,88.3% and 28.6%,59.4% and 15.3%,19.1% and 3.08%,5.33% and 2.16%,0.0131 µM and < 0.00316 µM,,3.07% and 2.39%,2.84% and 2.02%,,,,,,,,,,
CC1COCCN1c1cc(C2(S(C)(=N)=O)CC2)nc(-c2ccnc3[nH]ccc23)n1 (centres undefined),,,,91.2% and 107%,89.3% and 102%,0.589 µM and 1.55 µM,,74.7% and 91.8%,29.1% and 74.6%,5.34% and 10.9%,2.87% and 2.76%,,,,,,,,
CCN(c1cc(-c2ccc(CN3CCOCC3)cc2)cc(C(=O)NCc2c(C)cc(C)[nH]c2=O)c1C)C1CCOCC1,,,,,,> 3 µM and 2.14 µM,,,,,,110% and 112%,107% and 112%,105% and 114%,105%,107% and 76.7%,104% and 38.9%,,
CC[C@@]1(O)C(=O)OCc2c1cc1n(c2=O)Cc2cc3c(CN(C)C)c(O)ccc3nc2-1,98.4% and 100%,34.6% and 58.8%,32.6% and 50.7%,20.8% and 24.8%,11.2%,0.00223 µM and 0.00798 µM,71.1% and 99.8%,,,,,,,,,,,,
CCc1c2c(nc3ccc(O)cc13)-c1cc3c(c(=O)n1C2)COC(=O)[C@]3(O)CC,,,,,,< 0.000949 µM,,,,,,5.78% and 4.21%,2.47% and 1.25%,0.78% and 0.75%,0.65% and 0.82%,,,15% and 13.4%,10.5% and 9.22%
COc1cc(C2c3cc4c(cc3C(OC3OC5COC(C)OC5C(O)C3O)C3COC(=O)C23)OCO4)cc(OC)c1O (centres undefined),,,,,,0.029 µM and 0.0521 µM,,,,,,89.7% and 84.4%,48.8% and 36.5%,23.6% and 39.6%,41% and 42.6%,34.9% and 9.87%,8.88% and 1.67%,,
COc1cc(Nc2ncc3c(n2)-c2ccc(Cl)cc2C(c2c(F)cccc2OC)=NC3)ccc1C(=O)O,,83.3% and 43.7%,41.7% and 44.3%,40% and 40.6%,39.9% and 40.8%,0.008 µM and < 0.00316 µM,,37.6% and 11.2%,,,,,,,,,,,
